Patent US4581172A, “Substituted pyrimido[6,1-a]isoquinolin-4-ones,pyrimido[6,1-a]benzozepin-4-ones and pyrimido[6,1-a]benzodiazepin-4-ones useful for prevention of thromboses and treating hypertension” (Hoffmann-La Roche Inc., priority 1983, dated 1986)

Legend:
[1] = tested on: Human platelet-rich plasma; assay: Inhibition of collagen-initiated platelet aggregation (aggregometer method); assay type: cell-based; settings: 10 min, human citrate plasma, 10 minutes at 37° C., aggregation initiated by collagen fibrils, hydrochlorides of the products tested, read-out: EC50 (maximum aggregation velocity)
Procedure: The maximum aggregation velocity was taken as the test parameter and the effective concentration (EC50) was ascertained from dosage-activity curves. Human platelet-rich plasma was obtained by centrifugation from citrated venous blood. The experiments were carried out with suspensions of the test substances in 0.9% sodium chloride. 0.18 ml of citrate plasma was treated with a 10 μl suspension of the test compounds and the mixture was incubated at 37° C. for 10 minutes, whereupon the aggregation was initiated by the addition of 10 μl of a suspension of collagen fibrils. The following EC50 values (in μM) were ascertained for the hydrochlorides of the products of certain Examples hereinafter: […]

[2] = Acute toxicity (LD50) p.o. in mice; settings: mouse, in vivo, po, hydrochloride

Compound	EC50 [1]	LD50 [2]
COc1cc2c(cc1OC)-c1cc(=Nc3c(C)cc(C)cc3C)n(C)c(=O)n1C(C)C2 (centres unmarked) [4(a), 9,10-dimethoxy-3,6-dimethyl-2-mesitylimino-2,3,6,7-tetrahydro-4H-pyrimido[6,1-a]isoquinolin-4-one]	100 nM	–
COc1cc2c(cc1OC)-c1cc(=Nc3c(C)cc(C)cc3C)n(C)c(=O)n1CCC2 [5(a), 10,11-dimethoxy-2-mesitylimino-3-methyl-2,3,7,8-tetrahydro-4H,6H-pyrimido[6,1-a]benzazepin-4-one]	120 nM	–
COc1cc2c(cc1OC)C(C)Cn1c-2cc(=Nc2ccccc2C)n(C)c1=O (centres unmarked) [6a) 2.]	–	2500 mg/kg
COc1cc2c(cc1OC)-c1cc(Nc3c(C)cc(C)cc3C)nc(=O)n1C(C)C2 (centres unmarked) [Example 2(a), 6,7-dihydro-9,10-dimethoxy-2-mesitylamino-6-methyl-4H-pyrimido[6,1-a]isoquinolin-4-one]	110 nM	–
COc1cc2c(cc1OC)C(C)Cn1c-2cc(=Nc2c(C)cc(C)cc2C)n(C)c1=O (centres unmarked) [Example 3, 9,10-dimethoxy-3,7-dimethyl-2-mesitylimino-2,3,6,7-tetrahydro-4H-pyrimido[6,1-a]isoquinolin-4-one]	600 nM	–
